Data from patent publication EP2468270A1, “(R)-2-(3-fluoro-4-phenylphenyl)propionic acid for use in the treatment of skin diseases” (GALENpharma GmbH, priority 2010, dated 2012).

Assays:
[1] = tested on: CGRP (Calcitonin Gene-Related Peptide); conditions: isolated rat skin; Averbeck et al. 2003; cited from earlier work
UV erythema (sunburn) = experiment: UV erythema test, twice the minimum erythema dose (Example 2); assay type: in vivo, human; conditions: four test subjects, skin of the back, topical spray 0.1, 0.25, 1 and 4% (w/w), visual score and spectroscopic colour measurement, 0-48 hours
Protocol: The clinical-pharmacological studies of the following Examples 2 to 4 were carried out on healthy adults as model for non-immunological inflammation. In a preliminary test on the skin of the back involving a group of four test subjects, the "minimum erythema dose" following irradiation with a standardized daylight irradiation apparatus ([…]) was established. In the main test 8 areas of the skin of the back of each subject were irradiated with twice the "minimum erythema dose" and then treated with tarenflurbil spray with 0.1, 0.25, 1 and 4% tarenflurbil (w/w) as well as the associated placebo formulations and the comparison preparations (triamcinolone acetonide 0.2% (w/w); mometasone furoate solution 0.1% (w/w)). […] The effect of the test preparation with the highest tarenflurbil concentration was much more marked than with the comparison solutions triamcinolone acetonide 0.2% (w/w) or mometasone furoate 0.1% (w/w).

PGE2 (prostaglandin E2) = experiment: in vitro whole blood culture test system, zymosan activation: PGE2 formation; assay type: cell-based; conditions: human whole blood from 3 donors, 2 hours pre-incubation with 0.39, 1.56, 6.25, 25 and 100 µg tarenflurbil/ml, then zymosan
Protocol: (§1) In an in vitro whole blood culture test system with human whole blood from 3 donors in each case, pre-incubation was carried out for 2 hours with 0.39, 1.56, 6.25, 25 and 100 µg tarenflurbil/ml whole blood before activation with zymosan (agent for producing sterile inflammations) took place. In total the following 37 parameters were measured which allow a broad overview of the reaction of the leucocytes under inflammatory conditions and thus also of the effects of tarenflurbil in such an environment: • 1. Amphiregulin • 2. Brain-derived neurotrophic factor (BDNF) • 3. Interleukin-1 alpha (IL-1α) • 4. IL-1β • 5. IL-1 receptor antagonist (IL-1Ra) • 6. IL-2 • 7. IL-3 • 8. IL-4 • 9. IL-5 • 10. IL-6 • 11. IL-7 • 12. IL-8 • 13. IL-10 • 14. IL-12, p40 subunit (IL-12p40) • 15. IL-12p70 • 16. IL-15 • 17. IL-17 • 18. IL-18 • 19. IL-23 • 20. Epiregulin • 21. Eotaxin (Eot.) • 22. Factor VII (F. VII) • 23. Granulocyte-monocytes colony stimulating factor (GM-CSF) • 24. Interferon gamma (IFNγ) • 25. Intercellular adhesion molecule-1 (ICAM-1) • 26. Monocyte chemoattractand protein-1 (MCP-1) • 27. Migration inhibitory protein-1 alpha (MIP-1α) • 28. MIP-1ß • 29. Matrix-metalloproteinase-2 (MMP-2) • 30. MMP-3 • 31. MMP-9 • 32. Oncostatin M (OSM) • 33. Stem-cell factor (SCF) • 34. […] (TGFα) • 35. Tumor necrosis factor alpha (TNFα) • 36. TNFß • 37. Vascular endothelial growth factor (VEGF)

isolated rat skin = conditions: Pethö et al. 2001, the authors attributed the effect to S-flurbiprofen impurity; cited from earlier work
[2] = in mice; Leipold et al., Chirality 2004; cited from earlier work
LT-C4/E4/D4 = experiment: in vitro whole blood culture test system, zymosan activation: leukotriene synthesis; assay type: cell-based; conditions: human whole blood, in allergy sufferers (Donor B), 0.39-100 µg tarenflurbil/ml, Figure 1
Protocol: In an in vitro whole blood culture test system with human whole blood from 3 donors in each case, pre-incubation was carried out for 2 hours with 0.39, 1.56, 6.25, 25 and 100 µg tarenflurbil/ml whole blood before activation with zymosan (agent for producing sterile inflammations) took place. […] A group determination of LT-C4/E4/D4 was carried out.

Alzheimer's disease = conditions: extensive clinical Phase III studies; WO 2005/065069, Imbimbo 2009; cited from earlier work
[3] = tested on: BDNF (brain-derived neurotrophic factor); experiment: in vitro whole blood culture test system, zymosan activation: BDNF release; assay type: cell-based; conditions: human whole blood from 3 donors, 0.39-100 µg tarenflurbil/ml
Protocol: In an in vitro whole blood culture test system with human whole blood from 3 donors in each case, pre-incubation was carried out for 2 hours with 0.39, 1.56, 6.25, 25 and 100 µg tarenflurbil/ml whole blood before activation with zymosan (agent for producing sterile inflammations) took place. In total the following 37 parameters were measured which allow a broad overview of the reaction of the leucocytes under inflammatory conditions and thus also of the effects of tarenflurbil in such an environment: • 1. […] Brain-derived neurotrophic factor (BDNF) • 3.

[4] = in humans; Geisslinger et al., J Clin Pharmacol. 1996; cited from earlier work
[5] = tested on: TGFß (transforming growth factor ß); experiment: in vitro whole blood culture test system, zymosan activation: TGFß release; assay type: cell-based; conditions: human whole blood from 3 donors, 0.39-100 µg tarenflurbil/ml
Protocol: as §1

Compound | inhibition of the release of CGRP [1] | degree of erythema (UV erythema) (UV erythema (sunburn)) | PGE2 (prostaglandin E2) formation (PGE2 (prostaglandin E2)) | effect on bradykinin-induced nociceptor sensitization to heat (isolated rat skin) | bioinversion into S-flurbiprofen [2] | leukotriene synthesis (LT-C4/E4/D4) (LT-C4/E4/D4) | efficacy against Alzheimer's disease (Alzheimer's disease) | BDNF (brain-derived neurotrophic factor) release [3] | conversion to S-flurbiprofen [4] | TGFß (transforming growth factor ß) release [5]
C[C@H](C(=O)O)c1ccc(-c2ccccc2)c(F)c1 [S-flurbiprofen] | effective |  |  |  |  |  |  |  |  | 
C[C@@H](C(=O)O)c1ccc(-c2ccccc2)c(F)c1 [tarenflurbil, (R)-2-(3-fluoro-4-phenylphenyl)propionic acid] | ineffective | dose-dependent reduction | dose-dependent reduction | effective | considerable bioinversion | dose-dependent reduction | ineffective | dose-dependent reduction | not to be converted to S-flurbiprofen | dose-dependent reduction
